Data as given in US8987486B2, “Trans-2-decenoic acid derivative and pharmaceutical agent containing the same” (Nagoya Industrial Science Research Institute, priority 2010, dated 2015).

What was measured:
Type in all cases: in vivo
[1] = tested on: Male ddY strain mice loaded with forced swimming stress; assay: Suppressive effect for depressive symptom as a result of stress loading (forced swimming); conditions: 100 μg/kg body weight intraperitoneally every day, thirteenth day after stress loading, versus PBS control
Procedure: Male ddY strain mice of seven weeks age were loaded, as the stress, with forced swimming of 6 minutes every day for 2 weeks and the evaluation of suppressive effect for depression symptom was conducted. Thus, as from the initiation of loading the stress, the compound 1 dissolved in 0.1% DMSO was intraperitoneally administered every day in a dose of 100 μg/kg body weight and the immobility time of the mice upon the forced swimming was measured (n=5). As a control, a phosphate-buffered physiological saline (PBS) was intraperitoneally administered to the mice during two weeks and the immobility time was measured (n=4). The cases to which no stress was loaded were also administered with each of the compound 1 and the phosphate buffered saline (PBS) as same as in the cases to which the stress was loaded. Incidentally the test of significance was conducted by means of a two-way ANOVA, Bonferroni test.

[2] = tested on: Spinal cord injury model rats; assay: Repairing action for the spinal cord injury, BBB scale (complete cut at T10); conditions: 100 μg/kg body weight intraperitoneally once daily, after six weeks, n=6
Procedure: Spinal cord injury model rats were prepared and the repairing action of the compound 1 for the spinal cord injury was investigated. The compound 1 was dissolved in a phosphate buffered saline (PBS) and intraperitoneally administered to each spinal cord injury model rat once daily in a dose of 100 μg/kg body weight. As a control, PBS was similarly administered.
Female Wistar rats of seven weeks age were anesthetized with pentobarbital (40 mg/kg), the spinal column was exposed, vertebral arch of the ninth thoracic vertebra was excised and the tenth thoracic cord (T10) was completely cut using a sharp knife. After the back muscle and the skin were satured, paralysis of hind limbs was confirmed to prepare spinal cord injury model rats.
For each of the groups administered with the compound 1 and PBS, the improvement in motor function of the spinal cord injury model rats during six weeks was evaluated every day according to a BBB scale (Basso D M, et al., J. Neurotrauma, 12:1-21 (1995)) (0 for immediately after the injury while 21 for non-injury). Incidentally, the test of significance was conducted by a two-way ANOV, Bonferroni test.

[3] = tested on: chronic mild stress-induced depressive model mice; assay: Spontaneous alternation behavior test (Y-maze test) in chronic mild stress-induced depressive model mice
Procedure: The same operation as in the above Test Example 7 was conducted to prepare chronic mild stress-induced depressive model mice (n=8 to 12). During that time, the compound of the present invention dissolved in PBS or in a PBS solvent containing DMSO, etc. was orally administered once daily for three weeks and, after that, evaluation for learning and memorizing behaviors was conducted by means of a spontaneous alternation behavior test (Y-maze test). Thus, an animal was placed at the front end of any arm in the Y-maze and allowed to freely walk in the maze for ten minutes, the arms into which the animal entered were successively recorded and the entry numbers of the animal into each arm within a measuring time (total arm entries) and the combined entry numbers into continuously different three arms (alternating behavior numbers) were checked. The alternating behavior rate (%) was calculated by the following expression and the spontaneous alternating behavior was evaluated as an index of short-term memory. Incidentally, the test of significance was conducted by a one-way ANOVA, Tukey's Multiple Comparison Test. Alternating behavior rate (%)=(Alternating behavior numbers)/(Total arm entries−2)×100

CCCCCCC/C=C/C(=O)OCCN(C)C [Compound 1, (E)-2-(dimethylamino)ethyl dec-2-enoate]
immobility time upon forced swimming [1]: significantly shortened the immobility time | mean value of BBB scores±SE [2]: 11.60±2.2

CCCCCCC/C=C/C(=O)OCCN(CC)CC [Compound 6, (E)-2-(diethylamino)ethyl dec-2-enoate]
alternating behavior rate ([3]; 300 μg/kg orally once daily for three weeks, control 60.21±2.39%): 75.40±3.22%

CCCCCCC/C=C/C(=O)NCCN(C)C [Compound 36, (E)-N-2-(dimethylamino)ethyl dec-2-enamide]
alternating behavior rate ([3]; 1,500 μg/kg orally once daily for three weeks, control 61.76±2.01%): 71.52±2.50%
